Results taken from patent US20070059299A1, “S-adenosyl methionine decarboxylase inhibition for the treatment of a herpes simplex virus infection” (Institut National de la Sante et de la Recherche Medicale …, priority 2002, published 2007).

How the values were obtained:
intracellular spermine = experiment: Spermine quantitation in HEp2 cells exposed to MGBG (dansylation, RP-HPLC); type: cell-based; conditions: for Relative amount of intracellular spermine, HSV infected + MGBG / Relative amount of intracellular spermine, Mock infected + MGBG: HEp2 cells, mock-infected cells without MGBG = 100%, means±SE, 3 experiments; for Relative amount of intracellular spermine, HSV infected + MGBG: 100 μM MGBG added with virus
Procedure: HEp2 cells were grown in 6-well plates (˜10^6 cells/well). Cells were infected or treated with 100 μM MGBG for 12 h or 24 h. For HSV-1-infected cells, MGBG was added simultaneously with viral suspension. Cell extracts and standards (spermine and diaminoheptane as an internal standard, (DAH)) were dansylated according to the procedure described by Seiler (Seiler, 1970) and were then treated using the protocol adapted from Besson (Besson et al., 1986). Dansylation was proceeded in glass vials by mixing 40 μl of HClO4 extracts, 10 μl of DAH , and 100 μl of 0.3 M Na2CO3 (Merck). The reaction was initiated by adding 200 μl of freshly prepared dansyl chloride solution (5mg/ml) in acetone (SDS, spectrosol grade) and allowed to proceed overnight in the dark at room temperature. After dansylation, each sample was diluted with 700 μl H2O, vortexed and applied to a Waters Sep-Pak C18 cartridge (Birnbaum et al., 1988). After washing with 4 ml of 20% methanol, the polyamine containing fraction was eluted with 2 ml of 100% methanol. The separation of polyamines and the quantification of spermine were performed by reverse phase high performance chromatography (RP-HPLC) using a Waters system composed of two models 510 pumps, a Wisp 700 autosampler and a NEC APC4 data module recorder integrator. A Merck F 1050 fluorescence spectrophotometer detected fluorescence (350 nm excitation and 495 nm emission). The separations were performed on a RP18 Merck Lichrocart (25×4 mm, 5 μm) precolumn and a RP18, 100 CH Merck column (125×4 mm; spherical packing 5 μm). The solvent system was an acetonitrile/water gradient at a flow rate of 1 ml/min of acetonitrile 60% in water for 7 min, then acetonitrile 90% for 10 min and a 98% acetonitrile purge for 5 min. The column was reequilibrated to initial 60% acetonitrile conditions during 10 min between two successive injections. For each determination, 50 or 100 μl of dansylated samples were injected onto the column equilibrated in 60% acetonitrile. Spermine was identified by its retention time compared to that of standard spermine. Peak areas were automatically measured by the integrator and evaluated according to the calibration method (Birnbaum et al., 1988). Spermine standard from 10 to 70 pmol was reacted and chromatographed to establish linear standard curve which was used to estimate the absolute amounts of spermine. The absolute limit of detection per injection was 1 pmol for dansylated spermine. Two blank injections were routinely run between calibrations and sample analysis. Mock-infected cells grown in the absence of MGBG were used as the control of intracellular spermine content and was therefore used as 100% value.
MGBG is known to alter the polyamine synthesis in inactivating SAMDC. Therefore, the amount of intracellular spermine was assessed in mock-infected and infected cells after MGBG exposure. Cells were grown for 12 h and 24 h in the presence of 100 μM MGBG which was added to cell medium simultaneously with virus particles for HSV-1 infected cells. Intracellular spermine content was estimated by standard procedure (Besson et al., 1986; Birnbaum et al., 1988; Seiler, 1970).

[1] = test system: HSV-1 proteins, mRNA and DNA; experiment: Levels of viral proteins (Western blot), mRNA and DNA (slot blot) in infected HEp2 cells; type: cell-based
Procedure: Total RNA and DNA from control mock-infected and infected HEp2 cells were purified using Qiagen RNA/DNA kit. RNA were submitted to DNAse/RNAse free digestion (1.5 unit/μg RNA) and DNA were submitted to RNAse A digestion (10 units/μg). Quantitation of SAMDC mRNA, of viral mRNAs and viral DNA present in each sample was determined by slot blot analysis using the 1250 bp PstI/PvuII fragment of pSAMr1 plasmid (Pajunen et al., 1988). The 746 bp SalI-EcoNI fragment of pSG28 and the 1308 bp MluI fragment of pSG124 plasmids (Goldin et al., 1981) were labelled with [^32P] and used as probes to detect the immediate early ICP27 and the early UL42 mRNAs respectively. Us11 late mRNA was detected with [^32P]-labelled probe composed of the 230 bp XhoI fragment of pHSV-Us12 plasmid (Diaz et al., 1996). Viral DNA was detected using the ICP27 specific DNA probe.
Mock-infected and HSV-1-infected HEp2 cells were washed three times with ice cold phosphate-buffered saline (PBS) (130 mM NaCl, 4 mM Na2HPO4.2H2O, 1.5 mM KH2PO4), scrapped into PBS, and collected by centrifugation at 500×g. Cells were resuspended in Laemmli buffer (Laemmli, 1970). Proteins were resolved by polyacrylamide gel electrophoresis and transferred by electroblotting onto a polyvinylidene difluoride membrane (Immobilon-P; Millipore). Viral proteins were analysed by Western blots (10 μg aliquots) using a 50 fold dilution of either a rabbit polyclonal anti-ICP27 antibody, or a rabbit polyclonal anti-Us11 antibody (Diaz et al., 1993), or a mouse monoclonal anti-UL42 antibody diluted 50 fold.
Cells were pre-treated with 10 to 200 μM of MGBG, then infected with HSV-1 in the presence of the same concentrations of MGBG. Proteins, RNA and DNA were extracted from cells infected for 24 h. Viral proteins were detected by Western blot using specific antibodies, whereas viral mRNA and DNA levels were assayed by slot blot analysis.

[2] = test system: acyclovir-susceptible reference strain SC16; experiment: Antiviral susceptibility testing by ELISA on HEp-2 cells, strain SC16; type: cell-based, HSV 1; conditions: HEp-2, read-out: Susceptibility of strain SC16 (concentration causing 50% inhibition of viral replication, IC50), median
Procedure: (§1) Three HSV 1 reference strains were tested : SC16 (acyclovir-susceptible reference strain; (Hill et al., 1975)), DM21 (acyclovir-resistant reference strain derived from SC16; (Efstathiou et al., 1989)) and TP 2.5 (foscarnet-resistant reference strain derived from SC16; (Larder and Darby, 1985)). Antiviral assays were performed in duplicate on HEp-2 cells seeded in 96 wells microplates. Dilutions of virus and drugs were prepared in E-MEM without FCS. Cells were first treated for 24 hours with MGBG using a series of 6 twofold serial dilutions from 12.5 to 400 μM. Infection was then achieved with 5 tenfold dilutions of cell-associated virus (10^−1 to 10^−5). Each dilution was incubated with a series of 6 concentrations of each antiviral drug (from 12.5 to 400 μM in twofold dilutions for MGBG, from 0.16 to 500 μM in fivefold dilutions for acyclovir and from 31 to 1000 μM in twofold dilutions for foscarnet). […] After incubation at 36° C. with 5% CO2 for 24 hours post-infection, medium was replaced with freshly prepared dilutions of MGBG. Viral multiplication was checked 24 hours afterwards by an ELISA (Morfin et al., 1999), using a rabbit monoclonal anti-HSV 1 antibody (BO 114, Dako) and a protein A peroxidase-conjugated (BioRad). The substrate, 2,2′-azino-di(3-ethyl-benzthiazoline) sulfonic acid (ABTS) diluted in ABTS buffer (Boehringer, Mannheim), was added to each well. After 30 min at room temperature, the plates were briefly agitated and optical densities were read at 405 nm with a multichannel spectrophotomoter (Titertek-Multiskan). Optical density values were used with the Biolise program (Life Sciences International) to calculate the concentration of the drug causing a 50% inhibition of viral replication (IC50) by logistic regression analysis.
The capacity of MGBG to preclude infection of three HSV-1 acyclovir and/or foscarnet resistant strains was tested. […] The ED values were determined.

HSV = HSV replication in cellulo; type: cell-based; conditions: read-out: HSV inhibition in cellulo IC50
Procedure: as §1

With `CC(C=NNC(=N)N)=NNC(=N)N` [MGBG, methylglyoxal bis(guanylhydrazone)] the “amount of intracellular spermine relative to control mock-infected cells grown without MGBG” value (intracellular spermine; 100 μM MGBG, both mock-infected and HSV-1-infected cells) was 60-65%, the “Relative amount of intracellular spermine, HSV infected + MGBG” value (intracellular spermine; 12 h) was 61.8 ± 9.0% and the “Relative amount of intracellular spermine, HSV infected + MGBG” value (intracellular spermine; 24 h) was 66.2 ± 7.0%. The “Relative amount of intracellular spermine, Mock infected + MGBG” value (intracellular spermine; 100 μM MGBG, 12 h) was 60.6 ± 1.4%, the “Relative amount of intracellular spermine, Mock infected + MGBG” value (intracellular spermine; 100 μM MGBG, 24 h) was 65.3 ± 14.3% and the viral replication ([1]; 6 h pre-treatment with 100 μM MGBG, MGBG alone, 24 h p.i.) was “totally inhibited”. The “viral DNA level, viral mRNA and proteins” value ([1]; cells pre-treated with 10 to 200 μM MGBG, infected 24 h, dose dependant) was “significantly decreased”, the IC50 [2] was 103 µM and the IC50 (HSV) was 44 µM.
